For assay [1], the target named is Metabotropic glutamate receptor 4 (Rattus norvegicus, UniProt P31423).
Assay [2] concerns the target Metabotropic glutamate receptor 2 (Homo sapiens, UniProt Q14416).

Metabotropic glutamate receptor 2, sequence (Q14416 whole entry): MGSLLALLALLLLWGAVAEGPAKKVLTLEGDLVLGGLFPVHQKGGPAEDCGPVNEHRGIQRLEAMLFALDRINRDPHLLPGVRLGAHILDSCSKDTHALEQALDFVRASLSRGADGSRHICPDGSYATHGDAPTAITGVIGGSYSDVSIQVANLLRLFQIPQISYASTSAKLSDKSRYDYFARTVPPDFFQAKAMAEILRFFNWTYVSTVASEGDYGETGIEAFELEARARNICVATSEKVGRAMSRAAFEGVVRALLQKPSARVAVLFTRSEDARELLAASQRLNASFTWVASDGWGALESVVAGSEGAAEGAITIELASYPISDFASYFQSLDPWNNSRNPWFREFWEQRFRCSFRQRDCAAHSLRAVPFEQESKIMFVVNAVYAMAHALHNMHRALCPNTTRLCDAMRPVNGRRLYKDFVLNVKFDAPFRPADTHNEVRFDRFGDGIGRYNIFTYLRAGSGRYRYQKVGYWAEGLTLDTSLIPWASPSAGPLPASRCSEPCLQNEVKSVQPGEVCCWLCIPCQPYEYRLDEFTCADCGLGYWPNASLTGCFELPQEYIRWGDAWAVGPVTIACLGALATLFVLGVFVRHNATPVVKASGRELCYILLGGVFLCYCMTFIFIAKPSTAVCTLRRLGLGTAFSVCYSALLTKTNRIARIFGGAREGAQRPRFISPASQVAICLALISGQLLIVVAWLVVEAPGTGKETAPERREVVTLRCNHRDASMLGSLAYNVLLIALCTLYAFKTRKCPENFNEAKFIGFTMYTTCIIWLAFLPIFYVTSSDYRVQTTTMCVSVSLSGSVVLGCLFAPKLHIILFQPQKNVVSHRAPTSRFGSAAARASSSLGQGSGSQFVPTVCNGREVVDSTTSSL
Metabotropic glutamate receptor 4, sequence (P31423 whole entry): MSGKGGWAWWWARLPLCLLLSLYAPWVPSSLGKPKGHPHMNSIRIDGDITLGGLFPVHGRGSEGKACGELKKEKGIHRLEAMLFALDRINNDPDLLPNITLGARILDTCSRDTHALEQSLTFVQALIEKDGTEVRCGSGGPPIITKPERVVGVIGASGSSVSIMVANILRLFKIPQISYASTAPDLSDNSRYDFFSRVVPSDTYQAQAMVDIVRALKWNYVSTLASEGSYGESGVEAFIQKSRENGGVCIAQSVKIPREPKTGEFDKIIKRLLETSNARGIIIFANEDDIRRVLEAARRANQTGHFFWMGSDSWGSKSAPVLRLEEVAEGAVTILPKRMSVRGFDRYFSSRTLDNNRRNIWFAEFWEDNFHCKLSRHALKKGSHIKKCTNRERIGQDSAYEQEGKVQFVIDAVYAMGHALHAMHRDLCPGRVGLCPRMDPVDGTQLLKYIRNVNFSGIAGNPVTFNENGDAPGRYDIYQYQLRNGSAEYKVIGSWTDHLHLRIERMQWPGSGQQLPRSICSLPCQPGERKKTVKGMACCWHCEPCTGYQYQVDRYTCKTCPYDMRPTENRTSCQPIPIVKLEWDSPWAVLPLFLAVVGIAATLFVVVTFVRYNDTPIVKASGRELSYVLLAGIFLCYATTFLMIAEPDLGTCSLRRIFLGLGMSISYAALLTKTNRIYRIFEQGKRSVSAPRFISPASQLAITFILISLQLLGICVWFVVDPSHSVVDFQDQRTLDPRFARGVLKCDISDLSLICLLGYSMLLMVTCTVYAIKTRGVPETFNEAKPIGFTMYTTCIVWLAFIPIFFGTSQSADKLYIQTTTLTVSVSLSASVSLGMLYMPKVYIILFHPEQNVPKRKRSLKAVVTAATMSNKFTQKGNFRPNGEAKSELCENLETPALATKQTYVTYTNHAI

The molecule `N[C@@H](COP(=O)(O)O)C(=O)O` yielded a Ki in assay [1] of 2.3 µM.

In assay [1], `N[C@@H](CCP(=O)(O)O)C(=O)O` came in with a Ki of 0.4 µM.

For `NC(C(=O)O)c1ccc(C(=O)O)c(O)c1` (stereo not drawn), the Ki in assay [2] was above 10 µM.

`CC(N)(C(=O)O)c1ccc(P(=O)(O)O)cc1` (stereo not drawn): the Ki in assay [1] and in assay [2] was above 10 µM throughout.

Consider `C[C@@](N)(C(=O)O)c1ccc(C(=O)O)cc1` (racemic), for which the Ki in assay [2] was above 10 µM.

For `N[C@@]1(C(=O)O)CC[C@H](C(=O)O)C1` [1S, 3R-ACPD], the Ki in assay [1] and in assay [2] was above 10 µM throughout.

Consider `N[C@@H](Cn1oc(=O)[nH]c1=O)C(=O)O` [2-amino-3-(3,5-dioxo[1,2,4]oxadiazolidin-2-yl)propionic acid], for which the Ki in assay [1] and in assay [2] was above 10 µM each time.

With `NC(C(=O)O)c1ccc(C(=O)O)cc1` (stereo not drawn) [4-(Amino-carboxy-methyl)-benzoic acid], the Ki in assay [2] was above 10 µM.

On to `N[C@H](C(=O)O)[C@H]1C[C@@H]1C(=O)O` [(1S,2S)-2-((S)-Amino-carboxy-methyl)-cyclopropanecarboxylic acid], for which the Ki amounted to 8.9 µM in assay [1] and 0.49 µM in assay [2].

On to `N[C@@]1(C(=O)O)CC[C@H](CC(=O)O)C1` [(1S,3S)-HOMO-ACPD], for which the Ki in assay [1] and in assay [2] was above 10 µM throughout.

Molecule `NC(C(=O)O)c1cc(=O)[nH]o1` (stereo not drawn) [Amino-(3-hydroxy-isoxazol-5-yl)-acetic acid(Ibotenic acid)] registered a Ki in assay [1] above 10 µM.

Take `N[C@@H](CCC(=O)O)C(=O)O` [L-Glutamic acid]: in assay [1], the Ki is above 10 µM.

On to `C[C@](N)(C(=O)O)C1C[C@@H]1C(=O)O` (stereo partly drawn) [MCCG-I], for which, in assay [2], the Ki is above 10 µM.

Turning to `CC(N)(CCP(=O)(O)O)C(=O)O` (stereo not drawn) [NSC_1795545], the Ki in assay [1] and in assay [2] was above 10 µM in each case.

Turning to `CC(N)(C(=O)O)c1ccc(S(=O)(=O)O)cc1` (stereo not drawn) [NSC_3964410], the Ki in assay [1] and in assay [2] was above 10 µM each time.

Regarding `CC(N)(C(=O)O)c1ccc(-n2cnnn2)cc1` (stereo not drawn) [NSC_5311456], the Ki in assay [2] was above 10 µM.

Source of the values: BindingDB's records for PubMed 8863838 (Upr Centre, 1996).
